Like-named read-outs stand apart in the source and are kept apart here.
Tests used:
Pim-1 [1] = molecular target: T1, Pim-1 (Homo sapiens (Human), UniProt P11309); assay: Pim enzyme assay (HTRF, 96-well), Pim-1; assay type: biochemical; details: full length recombinant Pim-1, biotinylated-BAD (S112) peptide, 10-point curve, 2 h RT, read-out: Pim-1 IC50 IP
From the text: These cDNAs were used as templates in PCR reactions to produce full-length DNA clones of the PIMs. […] PCR products were digested with BclI and EcoRI for Pim-1 and BamHI and EcoRI for Pim-2 and ligated into a modified baculovirus transfer vector (pFastBac1) cleaved with BamHI and EcoRI. For bacterial expression, the same cleaved PCR products encoding Pim-1 or Pim-2 were ligated into a modified E. coli expression vector pET28(a) cleaved with BamHI and EcoRI. Amino-terminal hexahistidine tags followed by a thrombin cleavage site were previously added to the vectors using standard methods of molecular biology.
Recombinant baculoviruses expressing Pim-1 or Pim-2 were made using standard methods (Fastbac manual, Invitrogen, Carlsbad, Calif.). […] Cells were harvested by centrifugation and frozen at −80 C. For E. coli expression, cells carrying pET28-His6-Th-Pim-1 or pET28-His6-Th-Pim-2 were picked from a single colony and grown o/n in LB media. The o/n culture was used to inoculate a 2 liter flask with 500 mL media. This was grown o/n and used to inoculate 15-20 liters of Terrific Broth in a New Brunswick Scientific fermentor. The E. coli were grown at 37° C. to and OD600 >1.6. The temperature was dropped to 18° C. and o/n expression was induced with 0.5 mM IPTG. Cells were harvested by centrifugation and frozen at −80° C.
The slurry was centrifuged at 1,000×g for 5 min, the supernatant decanted, and the resin suspended in 40 mL of lysis wash buffer (lysis buffer at 0.75 M NaCl). This step was repeated 3× and the resin was transferred to a 2.5 cm glass column. Ten column volumes of wash buffer (0.05 M HEPES, pH 8.0, 0.1 M NaCl, 0.01 M 2-mercaptoethanol, 10%(w/v) glycerol) were applied to the resin followed by 10 column volumes of elution buffer (0.05 M HEPES, pH 8.0, 0.25 M NaCl, 0.01 M 2-mercaptoethanol, 10%(w/v) glycerol, 0.1 M imidazole). Fractions were analyzed by SDS-PAGE and those containing the protein of interest were pooled and concentrated. The concentrated protein was applied to an Amersham Superdex 75 (XK 26/60) column equilibrated in 0.025 M Tris-HCl, pH 7.5, 0.1 M NaCl, 0.01 M 2-mercaptoethanol, 10% (w/v) glycerol. […] Fractions containing the monomeric protein of interest were pooled, concentrated to ˜2 mg/mL, and stored at −80° C.
The phosphorylation of biotinylated-BAD (S112) peptide by full length recombinant Pim-1, Pim-2, or Pim-3 protein was detected with streptavidin:Allophycocyanin (APC) conjugate and a europium (Eu) labeled antibody directed against phosphorylated-BAD (S112). […] The fluorescence is directly proportional to the amount of phosphorylated BAD peptide present in the reaction. […] A reference compound was included on each assay plate in order to validate that plate; on one plate of every assay run, two additional reference compounds were included. The final buffer conditions were as follows: 60 mM Hepes, pH 7.0, 0.05% BSA, 2 mM DTT. Incubations were carried out at RT (22° C.) for 2 h for Pim-1, 1 hour and 30 min for Pim-3, and 45 min for Pim-2. The reaction was stopped by the addition of 3 mM EDTA, and fluorescence was measured by an HTRF® Rubystar microplate reader. For each plate, percent of control (POC) values were calculated for each well. Values for the IC50 IP were estimated using a standard 4-parameter logistic model.

[2] = tested on: KMS-12-BM myeloma cell line; assay: Pim KMS-12 cell assay (phospho-BAD S112 / total BAD, MSD)
Pim-1 [3] = molecular target: T1, Pim-1; assay: Pim-Mn enzyme assay (HTRF, 384-well), Pim-1; assay type: biochemical; details: Pim-1 enzyme 5 pM, ATP 1.5 μM, BAD (S112) 0.5 μM, HTRF, 22-point curve; read-out: Pim-1-Mn IC50 IP
Pim-2 = Pim-2 (Homo sapiens (Human), UniProt Q9P1W9); assay: Pim-Mn enzyme assay (HTRF, 384-well), Pim-2; assay type: biochemical; details: Pim-2 enzyme 0.5 pM, ATP 1.5 μM, BAD (S112) 0.5 μM, HTRF, 22-point curve; read-out: Pim-2-Mn IC50 IP
KMS-12-BM cell lines = assay: KMS12 #2 flow cytometry assay (phospho-BAD Ser112); assay type: cell-based; details: Homo sapiens, KMS-12-BM, 110 min, read-out: KMS-12-Flow IC50 IP
[4] = read-out: KMS-12-BM IC50 IP, KMS-12-BM cells, phospho-BAD (S112) vs total BAD, 1 hour 50 min with compound
[5] = Homo sapiens, KMS-12-BM, read-out: KMS-12-BM IC50 IP, KMS-12-BM cells, phospho-BAD (S112) vs total BAD, 1 hour 50 min with compound
[6] = Homo sapiens, KMS-12-BM, read-out: KMS-12-BM IC50 IP

Sequence of Pim-2 (Q9P1W9 whole entry): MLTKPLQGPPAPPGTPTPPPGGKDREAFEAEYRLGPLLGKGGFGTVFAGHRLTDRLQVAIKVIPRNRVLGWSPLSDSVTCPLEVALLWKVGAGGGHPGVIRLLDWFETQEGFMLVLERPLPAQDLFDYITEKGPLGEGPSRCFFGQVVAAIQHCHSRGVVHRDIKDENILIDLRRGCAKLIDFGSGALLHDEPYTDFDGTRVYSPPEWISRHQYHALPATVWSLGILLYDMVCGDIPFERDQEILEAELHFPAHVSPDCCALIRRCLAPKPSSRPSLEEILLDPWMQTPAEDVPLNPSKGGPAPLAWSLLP
T1 sequence (P11309 whole entry): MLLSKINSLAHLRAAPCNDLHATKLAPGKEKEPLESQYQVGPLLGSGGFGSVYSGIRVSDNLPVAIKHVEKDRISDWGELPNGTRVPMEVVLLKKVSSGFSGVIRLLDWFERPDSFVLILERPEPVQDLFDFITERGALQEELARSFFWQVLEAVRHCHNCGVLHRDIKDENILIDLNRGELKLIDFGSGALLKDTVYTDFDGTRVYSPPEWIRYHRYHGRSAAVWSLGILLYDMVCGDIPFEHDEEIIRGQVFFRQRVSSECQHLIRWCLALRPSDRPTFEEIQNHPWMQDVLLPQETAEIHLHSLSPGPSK

Question: `O=C(Nc1ccccc1)c1ccc2cccc(-c3cc4c([nH]3)CCNC4=O)c2n1` [Example 95, 8-(4-oxo-4,5,6,7-tetrahydro-1H-pyrrolo[3,2-c]pyridin-2-yl)-N-phenylquinoline-2-carboxamide] was tested. Which IC50 (Pim-1 [1]) did it give?
Answer: The IC50 was 222 nM.

Question: `CCC1CNC(=O)c2cc(-c3cccc4cc(C)c(Nc5ccccc5)nc34)[nH]c21` (single isomer, unassigned) [Example 118, 7-ethyl-2-(3-methyl-2-(phenylamino)quinolin-8-yl)-6,7-dihydro-1H-pyrrolo[3,2-c]pyridin-4(5H)-one] was tested. Which IC50 (Pim-1 [1]) did it give?
Answer: Its IC50 is 3.2 nM.

Question: And the IC50 [2, 4]?
Answer: The IC50 was 5210 nM.

Question: How did the IC50 (Pim-1 [1]) turn out when `O=C1NCCc2[nH]c(-c3c(F)ccc4ccc(NC5CCCCC5)nc34)cc21` [Example 90, 2-(2-(cyclohexylamino)-7-fluoroquinolin-8-yl)-6,7-dihydro-1H-pyrrolo[3,2-c]pyridin-4(5H)-one] was run?
Answer: The IC50 was 340 nM.

Question: `CCC1CNC(=O)c2cc(-c3cccc4cc(C)c(Nc5ccccc5)nc34)[nH]c21` (single isomer, unassigned) [Example 117, 7-ethyl-2-(3-methyl-2-(phenylamino)quinolin-8-yl)-6,7-dihydro-1H-pyrrolo[3,2-c]pyridin-4(5H)-one] was tested. Which IC50 (Pim-1 [1]) did it give?
Answer: The IC50 was 0.6 nM.

Question: And the IC50 [2, 5]?
Answer: Its IC50 is 3150 nM.

Question: `Cn1cc(-c2cccc3ccc(Nc4ccccc4)nc23)cc1C(N)=O` [Example 164, 1-methyl-4-(2-(phenylamino)quinolin-8-yl)-1H-pyrrole-2-carboxamide] was tested. Which IC50 (Pim-1 [1]) did it give?
Answer: Its IC50 is 243 nM.

Question: `Cc1nc2cccc(-c3cc4n(c3)CCNC4=O)c2nc1NC1CC1` [Example 233, 7-(3-(cyclopropylamino)-2-methylquinoxalin-5-yl)-3,4-dihydropyrrolo[1,2-a]pyrazin-1(2H)-one 2,2,2-trifluoroacetate] was tested. Which IC50 (Pim-1 [1]) did it give?
Answer: Its IC50 is 44.6 nM.

Question: And the IC50 (Pim-1 [3])?
Answer: Its IC50 is 25 nM.

Question: What about the IC50 [2, 5] of the same compound?
Answer: The IC50 was 621 nM.

Question: How did the IC50 (Pim-1 [1]) turn out when `CCC1CNC(=O)c2cc(-c3cccc4ccc(Cl)nc34)[nH]c21` (racemic) [Example 22, rac-2-(2-chloroquinolin-8-yl)-7-ethyl-6,7-dihydro-1H-pyrrolo[3,2-c]pyridin-4(5H)-one] was run?
Answer: Its IC50 is 60.9 nM.

Question: For `CN1CCN(C(=O)c2ccc3cccc(-c4cc5c([nH]4)CCNC5=O)c3n2)CC1` [Example 97, 2-(2-(4-methylpiperazine-1-carbonyl)quinolin-8-yl)-6,7-dihydro-1H-pyrrolo[3,2-c]pyridin-4(5H)-one], which IC50 (Pim-1 [1]) is on record?
Answer: The IC50 was 227 nM.

Question: For `O=C(NC1CC1)c1ccc2cccc(-c3cc4c([nH]3)CCNC4=O)c2n1` [Example 94, N-cyclopropyl-8-(4-oxo-4,5,6,7-tetrahydro-1H-pyrrolo[3,2-c]pyridin-2-yl)quinoline-2-carboxamide], which IC50 (Pim-1 [1]) is on record?
Answer: The IC50 was 269 nM.

Question: Which IC50 (Pim-1 [1]) does the source give for `Cc1nc2cccc(-c3cc4c([nH]3)CCNC4=O)c2nc1NC1CCCCCC1` [Example 134, 2-(3-(cycloheptylamino)-2-methylquinoxalin-5-yl)-6,7-dihydro-1H-pyrrolo[3,2-c]pyridin-4(5H)-one] here?
Answer: Its IC50 is 8.9 nM.

Question: How did the IC50 (Pim-1 [1]) turn out when `O=C1NCCn2cc(-c3cccc4ccc(C(=O)N5CCCC5)nc34)cc21` [Example 168, 7-(2-(pyrrolidine-1-carbonyl)quinolin-8-yl)-3,4-dihydropyrrolo[1,2-a]pyrazin-1(2H)-one] was run?
Answer: The IC50 was 608 nM.

Question: For `CC(C)CC1CNC(=O)c2cc(-c3cccc4cccnc34)[nH]c21` (racemic) [Example 125, rac-7-isobutyl-2-(quinolin-8-yl)-6,7-dihydro-1H-pyrrolo[3,2-c]pyridin-4(5H)-one], which IC50 (Pim-1 [1]) is on record?
Answer: Its IC50 is 41.8 nM.

Question: And the IC50 (Pim-1 [3])?
Answer: Its IC50 is 21.1 nM.

Question: What about the IC50 (Pim-2) of the same compound?
Answer: The IC50 was 278 nM.

Question: How did the IC50 (Pim-1 [1]) turn out when `CCC1CNC(=O)c2cc(-c3cccc4ccc(Oc5ccccc5)nc34)[nH]c21` (racemic) [Example 23, rac-7-ethyl-2-(2-phenoxyquinolin-8-yl)-6,7-dihydro-1H-pyrrolo[3,2-c]pyridin-4(5H)-one] was run?
Answer: The IC50 was 14.1 nM.

Question: Which results are given for `Cc1nc2cccc(-c3cc4c([nH]3)CCNC4=O)c2nc1N[C@@H]1CCCNC1` [Example 75, 2-(2-methyl-3-((3R)-3-piperidinylamino)-5-quinoxalinyl)-1,5,6,7-tetrahydro-4H-pyrrolo[3,2-c]pyridin-4-one]?
Answer: IC50 (Pim-1 [3]): 0.6 nM; IC50 (Pim-2): 1.2 nM; IC50 [2, 5]: 892 nM

Question: What does the source list for “2′-(3-(cyclopropylamino)-6-fluoro-2-methylquinoxalin-5-yl)-1′H-spiro[cyclopropane-1,6′-pyrrolo[3,4-b]pyrrol]-4′(5′H)-one [Example 283]”?
Answer: IC50 (Pim-1 [3]): 3.3 nM; IC50 (Pim-2): 0.8 nM; IC50 [2, 4]: 199 nM

Question: Which results are given for `CC1(C)CN(c2cnc3cccc(-c4cc5c([nH]4)CCNC5=O)c3n2)CCN1` [Example 214, 2-(3-(3,3-dimethylpiperazin-1-yl)quinoxalin-5-yl)-6,7-dihydro-1H-pyrrolo[3,2-c]pyridin-4(5H)-one]?
Answer: IC50 (Pim-1 [3]): 4.7 nM; IC50 (Pim-2): 58 nM; IC50 [2, 5]: 9870 nM

Question: For `CCNc1nc2c(-c3cc4c([nH]3)CCNC4=O)cccc2nc1C` [Example 69, 2-(3-(ethylamino)-2-methyl-5-quinoxalinyl)-1,5,6,7-tetrahydro-4H-pyrrolo[3,2-c]pyridin-4-one], which IC50 (Pim-1 [3]) is on record?
Answer: Its IC50 is 3.4 nM.

Question: What about the IC50 (Pim-2) of the same compound?
Answer: The IC50 was 1.7 nM.

Question: And the IC50 [2, 6]?
Answer: The IC50 was 223 nM.

Question: Which IC50 (Pim-1 [3]) does the source give for `Cc1nc2cccc(-c3cc4c([nH]3)CCNC4=O)c2nc1N` [Example 218, 2-(3-amino-2-methylquinoxalin-5-yl)-6,7-dihydro-1H-pyrrolo[3,2-c]pyridin-4(5H)-one] here?
Answer: The IC50 was 36 nM.

Question: What about the IC50 (Pim-2) of the same compound?
Answer: Its IC50 is 17.4 nM.

Question: What about the IC50 [2, 5] of the same compound?
Answer: The IC50 was 1090 nM.

Question: For `CCC1CNC(=O)c2cc(-c3cccc4cc(C)c(Nc5ccccc5)nc34)[nH]c21` (racemic) [Example 250, rac-7-ethyl-2-(3-methyl-2-(phenylamino)quinolin-8-yl)-6,7-dihydro-1H-pyrrolo[3,2-c]pyridin-4(5H)-one], which IC50 (Pim-1 [1]) is on record?
Answer: Its IC50 is 1 nM.

Question: And the IC50 [2, 5]?
Answer: The IC50 was 2820 nM.

Question: How did the IC50 (Pim-1 [1]) turn out when `COCCNC(=O)c1ccc2cccc(-c3cc4c([nH]3)CCNC4=O)c2n1` [Example 96, N-(2-methoxyethyl)-8-(4-oxo-4,5,6,7-tetrahydro-1H-pyrrolo[3,2-c]pyridin-2-yl)quinoline-2-carboxamide] was run?
Answer: The IC50 was 283 nM.

Question: Which results are given for `Cc1nc2ccc(F)c(-c3cc4c([nH]3)CCNC4=O)c2nc1NC(C)(C)C` [Example 286, 2-(3-(tert-butylamino)-6-fluoro-2-methylquinoxalin-5-yl)-6,7-dihydro-1H-pyrrolo[3,2-c]pyridin-4(5H)-one]?
Answer: IC50 (Pim-1 [3]): 0.289 nM; IC50 (Pim-2): 0.305 nM; IC50 (KMS-12-BM cell lines): 28.2 nM; IC50 [2, 6]: 143 nM

Question: `Cc1nc2cccc(-c3cc4c([nH]3)CCNC4=O)c2nc1NC1(C)CCOCC1` [Example 203, 2-(2-methyl-3-((4-methyltetrahydro-2H-pyran-4-yl)amino)quinoxalin-5-yl)-6,7-dihydro-1H-pyrrolo[3,2-c]pyridin-4(5H)-one] was tested. Which IC50 (Pim-1 [3]) did it give?
Answer: Its IC50 is 1.2 nM.

Question: And the IC50 (Pim-2)?
Answer: Its IC50 is 5.6 nM.

Question: And the IC50 [2, 5]?
Answer: Its IC50 is 232 nM.

Source: patent publication US9394297B2, “Amides as pim inhibitors” (AMGEN INC., priority 2012, dated 2016)
